In US10676474B2, “1,6-naphthyridine derivatives as CDK4/6 inhibitor” (CSTONE PHARMACEUTICALS, priority 2016, dated 2020):
≈ marks a conversion by molar mass, not a printed value. Read-outs that look alike come from different tables or passages of the source. Values belong to the compound of their own block, whether it stands above or below them.

Legend:
[1] = target: T1, CDK6/cyclin D1 (Homo sapiens, UniProt Q00534); test: Enzyme activity assay CDK6/cyclin D1 (Lance Ultra); assay type: biochemical; settings: 0.8 nM CDK6/cyclin D1, 250 μM ATP, 180 minutes
T1 construct: purchased Life technology
Procedure: (§1) CDK4/cyclin D1, CDK6/cyclin D1 (Life technology). ULight labeled polypeptide substrates ULight-4E-BP1 and ULight-MBP (PerkinElmer). Europium labeled anti-myelin basic protein antibody and europium labeled rabbit-derived antibody (PerkinElmer). Envision Multi-label Analyzer (PerkinElmer) for signal detection.
(§2) They were respectively dissolved in an enzyme buffer solution comprising: 50 mM hydroxyethylpiperazine ethanesulfuric acid solution at pH 7.5, 1 mM ethylenediaminetetraacetic acid, 10 mM magnesium chloride, 0.01% Brij-35, 2 mM dithiothreitol. After the reaction was started, the OptiPlate 384-well plate was sealed with a top heat seal film TopSeal-A and incubated at room temperature for 180 minutes.
(§3) The termination buffer solution of the enzymatic reaction was prepared, and EDTA was dissolved in a 1-fold diluted assay buffer solution. The reaction was terminated and incubated at room temperature for 5 minutes. 5 μL of the assay mixed solution (prepared with europium labeled anti-myelin basic protein antibody and europium labeled rabbit-derived antibody, respectively) was added to the reactions of CDK4/cyclin D1 and CDK6/cyclin D1, respectively, and incubated at room temperature for 60 minutes. The reaction signal was detected by Envision according to the time-resolved fluorescence resonance energy transfer theory.

[2] = tested on: NCI-H358 cells; test: Cell viability assay NCI-H358 (CellTiter-Glo); assay type: cell-based; settings: Homo sapiens, 168 h; NCI-H358, incubated for 7 days
Procedure: The NCI-H358 cell line is from the cell bank of the Department of Biology of WuXi Apptec Co. Ltd. Envision Multi-Label Analyzer (PerkinElmer).
1) 100 μL of phosphate buffer solution was added to the peripheral wells of the 384-well plate and 40 μL of NCI-H358 cell suspension was added to the other wells containing 250 NCI-H358 cells. The cell plate was then placed in a carbon dioxide incubator and incubated overnight.
2) A 3-fold gradient dilution was subjected to the tested compounds using Echo. Each compound was diluted by 10 concentration gradients (diluted from 25 μM to 1.27 nM), 100 nL of which was added to the corresponding wells of the cell plate. The cell plate was then placed in a carbon dioxide incubator and incubated for 7 days.
3) 20 μL of Promega CellTiter-Glo reagent was added to each well of the cell plate, and shaken for 10 minutes away from light at room temperature to stabilize the luminescence signal. Readings were performed using a PerkinElmer Envision Multi-label Analyzer.
Table 1 provides the inhibitory activity of the compounds of the present invention against the proliferation of H358 cells.

[3] = target: T2, CDK4/cyclin D1 (Homo sapiens, UniProt P11802); test: Enzyme activity assay CDK4/cyclin D1 (Lance Ultra); assay type: biochemical; settings: 0.3 nM CDK4/cyclin D1, 350 μM ATP, 180 minutes
T2 construct: purchased Life technology
Procedure: as §1
as §2, with “begun,” for “started,”, “TopSeal-A,” for “TopSeal-A”
as §3

[4] = tested on: Caco-2 cells; test: Two-way permeability evaluation assay of Caco-2 cells; settings: Caco-2
[5] = In vivo pharmacodynamic study (2), NCI-H358 model, animal weight; design: species or system BALB/c nude mice; settings: 60 mg/kg orally daily
Procedure: (§4) The in vivo pharmacodynamic experiments were performed on the BALB/c nude mice implanted subcutaneously with the non-small cell lung cancer NCI-H358 model.
(§5) All of the cages, beddings and water were disinfected before use. All of the animals were permitted free access to a standard certified commercial laboratory diet. A total of 86 mice purchased from Vital River Laboratory Animal Co., LTD, Beijing were used for the study. The animal information of the experiments in Example 34 was as follows: BALB/c nude mice, female, 6-8 weeks, weighing approximately 16-18 g, were placed in a single ventilated cage (4 mice per cage) under a special pathogen free environment. All of the cages, beddings and water were disinfected before use. All of the animals were permitted free access to a standard certified commercial laboratory diet. A total of 56 mice purchased from Shanghai Lingchang Biotechnology Co., Ltd. were used for the study.
(§6) Each mouse was implanted subcutaneously with NCI-H358 tumor cells in the right back for tumor growth. The dosing initiated when the average tumor volume reached about 100-200 mm^3. […] The tumor volume was measured twice a week using a two-dimensional caliper, and the volume was measured in mm^3, calculated by the following the formula: V=0.5 a×b^2, wherein, a and b were the long and short diameters of the tumor, respectively. The antitumor efficacy was determined by dividing the average increase in the tumor volume of the animals treated with the compound by the average increase in the tumor volume of the untreated animals, and the safety of the compound was determined by the change in the body weight of the animal treated with the compound.

[6] = tested on: non-small cell lung cancer NCI-H358 model; test: In vivo pharmacodynamic study (2), NCI-H358 model, tumor volume; design: species or system BALB/c nude mice; settings: 60 mg/kg orally daily, Table 6-1
Procedure: as §4, §5, §6
TGI: Tumor Growth Inhibition.

[7] = tested on: Caco-2 cells
[8] = Metabolic stability in rat liver microsomes; assay type: in vitro ADME; settings: 0.5 mg/mL protein, read-out: Rats T1/2
Procedure: (§7) This assay is used to test the metabolic stability of tested substances in rats, mice and human liver microsomes.
(§8) 1) The tested compound with concentration of 1 μM was co-incubated with liver microsomes with a protein concentration of 0.5 mg/mL under a reducing coenzyme II regeneration system in a 37° C. water bath.
(§9) 2) The positive controls include: testosterone (3A4 substrate), propafenene (2D6 substrate) and diclofenac (2C9 substrate). The incubation condition of the positive controls was consistent with that of the compound.
(§10) 3) The reaction time points were: 0, 5, 10, 20, 30 and 60 minutes, and the reaction is terminated at the corresponding time point using a termination solution containing an internal standard. The compounds were also incubated with microsomes for 60 minutes without a reducing coenzyme II regeneration system and served as a negative control.
(§11) 4) Each time point was a single point (n=1).
(§12) 5) The sample was determined by LC/MS/MS, and the compound concentration was shown as the ratio of the peak area of the compound to the peak area of the internal standard (non-standard).
(§13) 6) In the project report summary, the half-life and the clearance rate would be calculated.

[9] = Metabolic stability in human liver microsomes; assay type: in vitro ADME; settings: 0.5 mg/mL protein, read-out: Human T1/2
Procedure: as §7, §8, §9, §10, §11, §12, §13

[10] = Metabolic stability in mouse liver microsomes; assay type: in vitro ADME; settings: 0.5 mg/mL protein, read-out: Mice T1/2
Procedure: as §7, §8, §9, §10, §11, §12, §13

[11] = Two-way permeability evaluation assay of Caco-2 cells; settings: human, Caco-2, pH 7.4
[12] = physchem; settings: phosphate buffer, pH 7.4, aqueous buffer, kinetic from dmso stock
[13] = Thermodynamic solubility test (shake-flask, HPLC); assay type: physicochemical; settings: phosphate buffer, aqueous buffer, thermodynamic from solid; QC samples, pH 7.4; read-out: Thermodynamic solubility pH 7.4
Procedure: The thermodynamic solubility of the compounds was determined by the shake-flask method and HPLC. The solubility of the compounds is an important property that affects drug screening of compounds and the absorption of compounds in animals and humans. A saturated solution of the compound was first given and quantitatively tested by HPLC to obtain the solubility of the compound.
50 mM phosphate buffer solution, pH 7.4.
Not less than 2 mg of the sample powder was weighed into a vial of Whatman miniuniprep. If test of the thermodynamic solubility of a sample in multiple buffer solutions is required, an individual vial is required for each test.
450 μL of the buffer solution (pH 7.4) was added to each Whatman miniuniprep vial.
After the addition of the buffer solution, the Whatman miniuniprep cap with a filter was mounted and pressed above the liquid level so that the filter could contact with the buffer solution during shaking.
And the observation of the solution was recorded.
It was shaked at 550 RPM for 24 hours at room temperature (about 22 to 25° C.).
The Whatman Miniunipreps filter cap was pressed to the bottom to give the filtrate of the sample solubility solution. All sample vials should be filtered before and after insoluble substances and their leakage.
The buffer was diluted 50 folds to give a sample diluent.
Three UV standards from low to high concentration were injected into HPLC, followed by the injection of the dilutions and supernatants of the tested compounds. The tested sample was injected twice.

[14] = tested on: LU-01-0393 lung cancer patient-derived tumor tissue xenograft (PDX); test: In vivo pharmacodynamic study (1), LU-01-0393 PDX; design: species or system BALB/c nude mice; settings: 60 mg/kg orally daily
Procedure: The in vivo pharmacodynamic experiments were performed on the BALB/c nude mice implanted subcutaneously with the LU-01-0393 lung cancer patient-derived tumor tissue xenograft (PDX).
BALB/c nude mice, female, 6-8 weeks, weighing approximately 17-21 g, were placed in a single ventilated cage (5 mice per cage) under a special pathogen free environment. All of the cages, beddings and water were disinfected before use. All of the animals were permitted free access to a standard certified commercial laboratory diet. A total of 36 mice purchased from Vital River Laboratory Animal Co., LTD, Beijing were used for the study. Each mouse was implanted subcutaneously with a tumor LU-01-0393 FP4 section (20-30 mm^3) in the right back for tumor growth. The dosing initiated when the average tumor volume reached about 150-200 mm^3. The tumor volume was measured twice a week using a two-dimensional caliper, and the volume was measured in mm^3, calculated by the following the formula: V=0.5 a×b^2, wherein, a and b were the long and short diameters of the tumor, respectively. The antitumor efficacy was determined by dividing the average increase in the tumor volume of the animals treated with the compound by the average increase in the tumor volume of the untreated animals.

T2 sequence (P11802 whole entry): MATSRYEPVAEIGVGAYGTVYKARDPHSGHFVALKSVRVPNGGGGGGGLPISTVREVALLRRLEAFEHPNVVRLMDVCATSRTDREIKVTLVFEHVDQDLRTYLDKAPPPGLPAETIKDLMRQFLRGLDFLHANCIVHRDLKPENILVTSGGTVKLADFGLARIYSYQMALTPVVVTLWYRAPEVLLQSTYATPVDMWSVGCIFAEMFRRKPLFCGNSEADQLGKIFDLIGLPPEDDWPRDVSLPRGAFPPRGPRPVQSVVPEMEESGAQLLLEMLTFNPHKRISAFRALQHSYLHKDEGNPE
T2 sequence (P24385 whole entry partner): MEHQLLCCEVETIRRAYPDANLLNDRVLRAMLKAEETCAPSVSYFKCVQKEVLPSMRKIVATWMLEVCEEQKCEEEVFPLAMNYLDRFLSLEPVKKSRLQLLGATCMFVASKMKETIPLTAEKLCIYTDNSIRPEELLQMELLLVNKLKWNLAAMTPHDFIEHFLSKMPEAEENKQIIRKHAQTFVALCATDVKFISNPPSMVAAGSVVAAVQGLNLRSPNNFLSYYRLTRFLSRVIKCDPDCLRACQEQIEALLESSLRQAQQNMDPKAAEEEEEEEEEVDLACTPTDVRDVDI
T1 sequence (Q00534 whole entry): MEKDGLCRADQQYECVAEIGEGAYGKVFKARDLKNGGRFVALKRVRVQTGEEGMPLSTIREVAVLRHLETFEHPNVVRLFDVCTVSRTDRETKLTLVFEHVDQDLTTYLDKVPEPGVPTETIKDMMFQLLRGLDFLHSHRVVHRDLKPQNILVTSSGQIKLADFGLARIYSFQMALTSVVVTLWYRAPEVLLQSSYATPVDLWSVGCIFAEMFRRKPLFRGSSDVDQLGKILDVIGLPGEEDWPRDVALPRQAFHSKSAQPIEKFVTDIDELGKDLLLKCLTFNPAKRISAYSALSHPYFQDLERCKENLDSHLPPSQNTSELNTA
T1 sequence (P24385 whole entry partner): as the sequence (P24385 whole entry partner) above

SMILES: CC(=O)c1c(C)c2cnc(Nc3cnc(N4CCN(C(C)C)C(C)(C)C4)cn3)cc2n(C2CCCC2)c1=O [Example 15]
IC50 [1]: 3.1 nM
IC50 [2]: 262 nM
IC50 [3]: 5.7 nM

SMILES: CC(=O)c1c(C)c2cnc(Nc3cnc(C4CCNCC4)cn3)cc2n(C2CCCC2)c1=O [Example 28]
IC50 [1]: 3.5 nM
IC50 [2]: 295 nM
IC50 [3]: 8.3 nM

SMILES: CCN1CCN(Cc2ccc(Nc3ncc(F)c(-c4cc(F)c5nc(C)n(C(C)C)c5c4)n3)nc2)CC1 [LY2835219, Abemaciclib]
Category Permeability [4]: Medium
Changes in animal weight, 0 days [5]: 0.0%
Changes in animal weight, 7 days [5]: −2.9%
Changes in animal weight, 14 days [5]: −3.5%
Changes in animal weight, 17 days [5]: −3.5%
Gross tumor volume, 0 day [6]: 152 mm^3
Gross tumor volume, 7 days [6]: 97 mm^3
Gross tumor volume, 14 days [6]: 73 mm^3
Gross tumor volume, 17 days [6]: 60 mm^3
Category Efflux transporter substrate [7]: Possible
half-life at 1 μM [8]: 6.34 min
half-life at 1 μM [9]: 2.69 min
half-life at 1 μM [10]: 2.36 min

SMILES: NC(=O)N1c2ccccc2C=Cc2ccccc21 [Carbamazepine, reference compound]
solubility kinetic at 24 h [12]: 180 ± 15 µM (≈ 42.5 µg/mL)
solubility thermodynamic at 24 h [13]: 450 ± 60 µM (≈ 106 µg/mL)

SMILES: CC(=O)c1c(C)c2cnc(Nc3cnc(N4CC5CCC(C4)N5C)cn3)cc2n(C2CCCC2)c1=O [Example 19]
IC50 [1]: 3.7 nM
IC50 [2]: 214 nM
IC50 [3]: 7 nM

SMILES: CC(=O)c1c(C)c2cnc(Nc3cnc(N4CCNCC4)cn3)cc2n(C2CCCC2)c1=O [Example 1, 3-acetyl-1-cyclopentyl-4-methyl-7-[(5-piperazin-1-ylpyrazin-2-yl)amino]-1,6-naphthyridin-2-one]
Gross tumor volume Day 0 ([14]; Day 0): 144 mm^3
Gross tumor volume Day 7 ([14]; Day 7): 132 mm^3
Gross tumor volume Day 14 ([14]; Day 14): 182 mm^3
Gross tumor volume Day 20 ([14]; Day 20): 212 mm^3

More lines, main results first:

IC50 [1]: 2.4 nM
IC50 [2]: 197 nM
IC50 [3]: 7.1 nM
SMILES: CC(=O)c1c(C)c2cnc(Nc3cnc(N4CCN(C)C(C)(C)C4)cn3)cc2n(C2CCCC2)c1=O [Example 14]

IC50 [1]: 3.1 nM
IC50 [2]: 278 nM
IC50 [3]: 5.6 nM
SMILES: CC(=O)c1c(C)c2cnc(Nc3cnc(N4CCN(C(C)C)[C@@H](C)C4)cn3)cc2n(C2CCCC2)c1=O [Example 11]

IC50 [1]: 3.4 nM
IC50 [2]: 196 nM
IC50 [3]: 9.1 nM
SMILES: CC(=O)c1c(C)c2cnc(Nc3cnc(N4CCN[C@@H](C)C4)cn3)cc2n(C2CCCC2)c1=O [Example 9, 3-acetyl-1-cyclopentyl-4-methyl-7-[[5-[(3S)-3-methylpiperazin-1-yl]pyrazin-2-yl]amino]-1,6-naphthyridin-2-one]

Category Efflux transporter substrate [4]: Less
Category Permeability [4]: High
Papp A→B at 2 h, 2 μM [11]: 10.9 ×10⁻⁶ cm/s
Papp B→A at 2 h, 2 μM [11]: 12.4 ×10⁻⁶ cm/s
efflux ratio at 2 h, 2 μM [11]: 1.14
IC50 [1]: 2.9 nM
solubility kinetic at 24 h [12]: 171 µM (≈ 83.7 µg/mL)
IC50 [2]: 176 nM
Changes in animal weight, 0 days [5]: 0.0%
Changes in animal weight, 7 days [5]: −1.0%
Changes in animal weight, 14 days [5]: 0.5%
Changes in animal weight, 17 days [5]: 0.8%
IC50 [3]: 6.1 nM
SMILES: CC(=O)c1c(C)c2cnc(Nc3cnc(N4CCN(C(C)C)CC4)cn3)cc2n(C2CCCC2)c1=O [Example 3]
Gross tumor volume, 0 day [6]: 152 mm^3
Gross tumor volume, 7 days [6]: 141 mm^3
Gross tumor volume, 14 days [6]: 159 mm^3
Gross tumor volume, 17 days [6]: 136 mm^3

IC50 [1]: 2.97 nM
IC50 [2]: 189 nM
IC50 [3]: 5.06 nM
SMILES: CC(=O)c1c(C)c2cnc(Nc3cnc(N4CCN(CCN)CC4)cn3)cc2n(C2CCCC2)c1=O [Example 35]

IC50 [1]: 4.66 nM
IC50 [2]: 153 nM
IC50 [3]: 8.62 nM
SMILES: CC(=O)c1c(C)c2cnc(Nc3cnc(N4CCN(CCO)CC4)cn3)cc2n(C2CCCC2)c1=O [Example 33]
